# Measurements published in patent US20250144067A1, “PERSONALIZED STARVATION THERAPY FOR CANCER” (Faeth Therapeutics, Inc., priority 2021, published 2025).
# Where a name gives a salt, the structure may show the parent alone. Read-outs that look alike come from different tables or passages of the source.
# Tests used:
# [1] = system: NCI-H292 lung cancer cells; assay: FDA drug screening, complete media vs cholesterol-free media without statin (TABLE 1); format: cell-based, human
# [2] = system: NCI-H292 lung cancer cells; assay: FDA drug screening, complete media vs cholesterol-free media with simvastatin (TABLE 2); format: cell-based, human
# [3] = NCI-H292 cells, cholesterol-free media without statin
# [4] = complete vs cholesterol-free media, greater than 0 enhanced anti-cancer activity, about 0 neutral, below 0 antagonists
# [5] = NCI-H292 cells, cholesterol-free media with simvastatin 0.04 μM, cell growth value in FDA drug screen
# [6] = NCI-H292 cells, complete media, cell growth value in FDA drug screen
# [7] = complete media minus cholesterol-free media + simvastatin, >0 enhanced anti-cancer activity, about 0 neutral, <0 antagonist
# [8] = NCI-H292 cells, cholesterol-free media with simvastatin 0.04 μM, FDA drug library screen (TABLE 2)
# [9] = NCI-H292 cells, complete media, FDA drug library screen (TABLE 2)
# [10] = complete media minus cholesterol-free media + simvastatin (0.04 μM), >0 enhanced anti-cancer activity, about 0 neutral, <0 antagonist
# [11] = Complete minus Cholesterol-free, greater than 0 enhanced anti-cancer activity, about 0 neutral, below 0 antagonists
# [12] = NCI-H292 cells in cholesterol-free media without statin
# [13] = NCI-H292 cells in complete media
# [14] = NCI-H292 cells, FDA drug library screen, cholesterol-free media with simvastatin 0.04 μM
# [15] = NCI-H292 cells, FDA drug library screen, complete media
# [16] = Complete minus Cholesterol-free, greater than 0 enhanced anti-cancer activity, about 0 neutral, below 0 antagonist
# [17] = NCI-H292 cells, FDA drug library screen, cholesterol-free media without statin
# [18] = NCI-H292 cells, drug in cholesterol-free media with simvastatin 0.04 μM
# [19] = NCI-H292 cells, drug in complete media
# [20] = complete media vs cholesterol-free media + simvastatin (0.04 μM), >0 enhanced anti-cancer activity, about 0 neutral, <0 antagonist
# [21] = NCI-H292 cells, cholesterol-free media without statin, FDA drug library screen
# [22] = NCI-H292 cells, complete media, FDA drug library screen
# [23] = complete vs cholesterol-free media, >0 enhanced anti-cancer activity, about 0 neutral, <0 antagonist
# [24] = Complete minus Cholesterol-free, >0 enhanced anti-cancer activity, about 0 neutral, <0 antagonist
# [25] = NCI-H292 cells, FDA library drug in cholesterol-free media with simvastatin 0.04 μM
compound,measurement,setting,value
CCCN1CCCC[C@H]1C(=O)Nc1c(C)cccc1C [Ropivacaine (hydrochloride monohydrate)],Cholesterol-free,[1]; [3],0.9717
same,Complete,"[1]; NCI-H292 cells, complete media",0.6061
same,Difference,[1]; [4],−0.37
same,Cholesterol-free media + simvastatin (0.04 μM),[2]; [5],1.378
same,Complete Media,[2]; [6],1.433
same,Difference,[2]; [7],0.05
CNCCc1ccccn1.CS(=O)(=O)O.CS(=O)(=O)O [Betahistine (mesylate)],Cholesterol-free,[1]; [3],1.235
same,Complete,"[1]; NCI-H292 cells, complete media",0.8713
same,Difference,[1]; [4],−0.36
same,Cholesterol-free media + simvastatin (0.04 μM),[2]; [8],1.015
same,Complete Media,[2]; [9],1.025
same,Difference,[2]; [10],0.01
CCN(c1cc(-c2ccc(CN3CCOCC3)cc2)cc(C(=O)NCc2c(C)cc(C)[nH]c2=O)c1C)C1CCOCC1 [Tazemetostat (hydrobromide)],Difference,[1]; [11],−0.47
same,Cholesterol-free,[1]; [12],1.683
same,Complete,[1]; [13],1.209
same,Cholesterol-free media + simvastatin (0.04 μM),[2]; [14],0.8785
same,Complete Media,[2]; [15],1.469
same,Difference,[2]; [7],0.59
Cl.NC(CO)(CO)CO [Trometamol (hydrochloride)],Cholesterol-free,[1],0.9218
same,Complete,[1],0.6947
same,Difference,[1],−0.23
same,Cholesterol-free media + simvastatin (0.04 μM),[2],1.673
same,Complete Media,[2],1.379
same,Difference,[2],−0.29
CCCCN(CCCC)C(=O)CN1C[C@H](c2ccc3c(c2)OCO3)[C@@H](C(=O)O)[C@@H]1c1ccc(OC)cc1 [Atrasentan (hydrochloride)],Difference,[1]; [16],−0.17
same,Cholesterol-free,[1]; [17],1.198
same,Complete,[1]; [15],1.025
same,Cholesterol-free media + simvastatin (0.04 μM),[2]; [18],1.092
same,Complete Media,[2]; [19],0.8532
same,Difference,[2]; [20],−0.24
CC(=O)O[C@H]1C[C@@]2(C)[C@@H](C[C@@H](O)[C@H]3[C@@]4(C)CC[C@@H](O)[C@@H](C)[C@@H]4CC[C@@]32C)/C1=C(\CCC=C(C)C)C(=O)O [Fusidic acid (sodium salt)],Cholesterol-free,[1]; [21],0.7301
same,Complete,[1]; [22],1.107
same,Difference,[1]; [23],0.38
same,Cholesterol-free media + simvastatin (0.04 μM),[2]; [8],0.9882
same,Complete Media,[2]; [9],0.9484
same,Difference,[2]; [10],−0.04
Sisomicin (sulfate),Difference,[1]; [24],−0.04
same,Cholesterol-free,[1]; [21],0.9293
same,Complete,[1]; [22],0.8918
same,Cholesterol-free media + simvastatin (0.04 μM),[2]; [5],0.697
same,Complete Media,[2]; [6],0.7346
same,Difference,[2]; [7],0.04
COc1nc(C)nc(Cl)c1N=C1NCCN1 [Moxonidine],Difference,[1]; [24],0.05
same,Cholesterol-free,[1]; [21],0.9137
same,Complete,[1]; [22],0.9657
same,Cholesterol-free media + simvastatin (0.04 μM),[2]; [5],0.8373
same,Complete Media,[2]; [6],0.9283
same,Difference,[2]; [7],0.09
NCCc1c[nH]c2ccc(O)cc12 [Serotonin hydrochloride],Difference,[1]; [11],−0.64
same,Cholesterol-free,[1]; [12],1.639
same,Complete,[1]; [13],1.003
same,Cholesterol-free media + simvastatin (0.04 μM),[2]; [18],1.379
same,Complete Media,[2]; [19],1.18
same,Difference,[2]; [20],−0.20
CCC[C@@H]1C[C@@H](C(=O)N[C@@H]([C@H]2O[C@H](SC)[C@H](O)[C@@H](O)[C@H]2O)[C@H](C)Cl)N(C)C1 [Clindamycin (hydrochloride)],Difference,[1]; [16],−0.08
same,Cholesterol-free,[1]; [17],1.009
same,Complete,[1]; [15],0.9276
same,Cholesterol-free media + simvastatin (0.04 μM),[2]; [5],1.243
same,Complete Media,[2]; [6],1.299
same,Difference,[2]; [7],0.06
CC(C)(C)c1cc(NC(=O)Nc2ccc(-c3cn4c(n3)sc3cc(OCCN5CCOCC5)ccc34)cc2)no1 [Quizartinib],Cholesterol-free,[1]; [21],0.663
same,Complete,[1]; [22],0.7657
same,Difference,[1]; [23],0.10
same,Cholesterol-free media + simvastatin (0.04 μM),[2]; [18],1.022
same,Complete Media,[2]; [19],0.8076
same,Difference,[2]; [20],−0.21
CC(C)(Oc1ccc(C(=O)c2ccc(Cl)cc2)cc1)C(=O)O [Fenofibric acid],Cholesterol-free,[1]; [3],1.435
same,Complete,"[1]; NCI-H292 cells, complete media",1.058
same,Difference,[1]; [4],−0.38
same,Cholesterol-free media + simvastatin (0.04 μM),[2]; [5],0.9473
same,Complete Media,[2]; [6],1.061
same,Difference,[2]; [7],0.11
CCCC(=O)OC[C@@H](OC(=O)CCC)[C@@H](OC(=O)CCC)[C@H](Cn1c2nc(=O)[nH]c(=O)c-2nc2cc(C)c(C)cc21)OC(=O)CCC [Riboflavin Tetrabutyrate],Difference,"[1]; Complete minus Cholesterol-free, […]",0.07
same,Cholesterol-free,[1]; [21],0.7766
same,Complete,[1]; [22],0.8432
same,Cholesterol-free media + simvastatin (0.04 μM),[2]; [14],1.163
same,Complete Media,[2]; [15],1.747
same,Difference,"[2]; complete media minus cholesterol-free media + simvastatin, […]",0.58
Cc1cccc(Cc2c[nH]cn2)c1C [Detomidine (hydrochloride)],Difference,[1]; [11],−0.47
same,Cholesterol-free,[1]; [12],1.106
same,Complete,[1]; [13],0.6322
same,Cholesterol-free media + simvastatin (0.04 μM),[2]; [14],1.019
same,Complete Media,[2]; [15],0.9319
same,Difference,[2]; [20],−0.09
CCN1CCCC(OC(=O)C(c2ccccc2)c2ccccc2)C1 (centres unmarked) [Piperidolate (hydrochloride)],Cholesterol-free,[1]; (hydrochloride),0.554
same,Complete,[1]; (hydrochloride),1.098
same,Difference,[1]; (hydrochloride),0.54
same,Cholesterol-free media + simvastatin (0.04 μM),[2]; (hydrochloride),0.5751
same,Complete Media,[2]; (hydrochloride),0.901
same,Difference,[2]; (hydrochloride),0.33
CCCN1C[C@H](C)[C@@H](O)[C@](C)(O)[C@@H](CC)OC(=O)[C@H](C)[C@@H](O[C@H]2C[C@@](C)(OC)[C@@H](O)[C@H](C)O2)[C@H](C)[C@@H](O[C@@H]2O[C@H](C)C[C@H](N(C)C)[C@H]2O)[C@](C)(O)C[C@H]1C [Gamithromycin],Cholesterol-free,[1]; [3],1.35
same,Complete,"[1]; NCI-H292 cells, complete media",0.886
same,Difference,[1]; [4],−0.46
same,Cholesterol-free media + simvastatin (0.04 μM),[2]; [14],1.403
same,Complete Media,[2]; [15],1.765
same,Difference,[2]; [7],0.36
(S)-Flurbiprofen,Difference,[1]; [11],−0.56
same,Cholesterol-free,[1]; [12],1.504
same,Complete,[1]; [13],0.9454
same,Cholesterol-free media + simvastatin (0.04 μM),[2]; [25],1.832
same,Difference,[2]; [20],−0.79
COc1cc2c(cc1OC)[C@@H]1Cc3ccc(OC)c(OC)c3CN1CC2 [Rotundine],Difference,[1]; [24],−0.21
same,Cholesterol-free,[1]; [3],1.07
same,Complete,"[1]; NCI-H292 cells, complete media",0.8588
same,Cholesterol-free media + simvastatin (0.04 μM),[2]; [25],1.094
same,Complete Media,"[2]; NCI-H292 cells, FDA library drug in complete media",0.8277
same,Difference,[2]; [20],−0.27
N[C@@H](Cc1cc(I)c(Oc2cc(I)c(O)c(I)c2)c(I)c1)C(=O)O [L-Thyroxine (sodium salt pentahydrate)],Difference,[1]; [16],−0.15
same,Cholesterol-free,[1]; [17],1.238
same,Complete,[1]; [15],1.085
same,Cholesterol-free media + simvastatin (0.04 μM),[2]; [5],0.8275
same,Complete Media,[2]; [6],0.8532
same,Difference,[2]; [7],0.03
O=C(O)COCCN1CCN(C(c2ccccc2)c2ccc(Cl)cc2)CC1 (centres unmarked) [Cetirizine (dihydrochloride)],Difference,[1]; [24],−0.28
same,Cholesterol-free,[1]; [3],1.185
same,Complete,"[1]; NCI-H292 cells, complete media",0.9092
same,Cholesterol-free media + simvastatin (0.04 μM),[2]; [5],0.9045
same,Complete Media,[2]; [6],0.9315
same,Difference,[2]; [7],0.03
COc1cccc(-c2c(C)n(Cc3c(F)cccc3C(F)(F)F)c(=O)n(C[C@H](NCCCC(=O)O)c3ccccc3)c2=O)c1F [(R)-Elagolix],Difference,[1]; [11],−0.49
same,Cholesterol-free,[1]; [12],1.394
same,Complete,[1]; [13],0.8996
same,Cholesterol-free media + simvastatin (0.04 μM),[2]; [14],1.16
same,Complete Media,[2]; [15],1.077
same,Difference,[2]; [20],−0.08
NC(=O)c1cccc2cn(-c3ccc([C@@H]4CCCNC4)cc3)nc12 [Niraparib (hydrochloride)],Difference,[1]; [11],−0.48
same,Cholesterol-free,[1]; [12],1.435
same,Complete,[1]; [13],0.9534
same,Cholesterol-free media + simvastatin (0.04 μM),[2]; [5],0.7422
same,Complete Media,[2]; [6],0.838
same,Difference,[2]; [7],0.10
